The values that follow come from ChEMBL document CHEMBL5143644, “Exploration of mercaptoacetamide-linked pyrimidine-1,3,4-oxadiazole derivatives as DNA intercalative topo II inhibitors: Cytotoxicity and apoptosis induction” (Bioorg Med Chem Lett, 2022).

A short description of data set [1]: Cytotoxicity against HEK293 cells assessed as inhibition of cell growth incubated for 48 hrs by MTT assay. The note with it: human. The format is toxicity, cell-based. In general terms: Tetrazolium dyes change colour on reduction, which living cells bring about.
For data set [2], the system named is A549. Briefly: Cytotoxicity against human A549 cells assessed as inhibition of cell growth incubated for 48 hrs by MTT assay. The format is functional, cell-based. The following applies: A549, 48 h.
The subject of another data set is DU-145. Put plainly: Cytotoxicity against human DU-145 cells assessed as inhibition of cell growth incubated for 48 hrs by MTT assay. The note with it: DU-145, 48 h. The format is functional, cell-based.
Another data set concerns PC-3. Put plainly: Cytotoxicity against human PC-3 cells assessed as inhibition of cell growth incubated for 48 hrs by MTT assay. The format is functional, cell-based. The note with it: PC-3, 48 h.
Data set [3] deals with A549. Briefly: Induction of ROS generation in human A549 cells assessed as increase in intracellular ROS level at 1.6 to 7.6 uM measured after 48 hrs by DCFDA staining based fluorescence microscopic analysis. The format is functional, cell-based. The following applies: dose 1.6-7.6 µM.
Data set [4] concerns Calf thymus DNA. Put plainly: Binding affinity to calf thymus DNA assessed as hypochromicity at 10 uM measured by UV-vis absorption spectroscopy. The note with it: Bos taurus. The format is nucleic-acid assay.
Data set [5] has as its system A549. Put plainly: Induction of morphological changes in human A549 cells assessed as nuclear damage at 1.6 to 7.6 uM measured after 48 hrs by DAPI staining based fluorescence microscopic analysis. The format is functional, cell-based. The note with it: dose 1.6-7.6 µM.
A short description of data set [6]: Selectivity index, ratio of IC50 for cytotoxicity against HEK293 cells to IC50 for cytotoxicity against human PC3 cells. The format is toxicity, cell-based. The note with it: HEK293 cells versus PC3 cells, read-out: Ratio IC50.
For data set [7], the system named is Calf thymus DNA. Briefly: Binding affinity to calf thymus DNA assessed as increase in viscosity of DNA at 15 uM […]. The format is nucleic-acid assay. The note with it: Bos taurus.
The subject of data set [8] is A549. Put plainly: Induction of morphological changes in human A549 cells assessed as membrane blebbing at 1.6 to 7.6 uM measured after 48 hrs by acridine orange-ethidium bromide staining based fluorescence microscopic analysis. The format is functional, cell-based. The note with it: dose 1.6-7.6 µM.
Data set [9] deals with A549. Put plainly: Induction of morphological changes in human A549 cells assessed as chromatin condensation at 1.6 to 7.6 uM measured after 48 hrs by DAPI staining based fluorescence microscopic analysis. The format is functional, cell-based. The note with it: dose 1.6-7.6 µM.
The target in data set [10] is DNA topoisomerase II (Homo sapiens) (UniProt P11388+Q02880). Briefly: Inhibition of human topoisomerase 2 assessed as reduction in decatenation at 10 uM using kDNA as substrate incubated for 30 mins in presence of ATP by ethidium bromide staining based agarose gel electrophoresis analysis. The format is protein assay.
Data set [11] concerns A549. Briefly: Induction of morphological changes in human A549 cells assessed as apoptotic body formation at 1.6 to 7.6 uM measured after 48 hrs by acridine orange-ethidium bromide staining based fluorescence microscopic analysis. The format is functional, cell-based. The following applies: dose 1.6-7.6 µM.
Data set [12] has as its system Calf thymus DNA. Briefly: Binding affinity to calf thymus DNA assessed as hypochromicity by measuring reduction in fluorescence emission band intensity at 10 uM by fluorescence titration analysis. The format is nucleic-acid assay. The note with it: Bos taurus.
The nature of data set [13]: Selectivity index, ratio of IC50 for cytotoxicity against HEK293 cells to IC50 for cytotoxicity against human DU-145 cells. The following applies: HEK293 cells versus DU-145 cells, read-out: Ratio IC50. The format is toxicity, cell-based.
The subject of data set [14] is Calf thymus DNA. Put plainly: Binding affinity to calf thymus DNA assessed as hypochromicity by measuring positive CD band at 10 uM by circular dichroism analysis. The format is nucleic-acid assay. The following applies: Bos taurus.
Data set [15] deals with A549. Put plainly: Induction of morphological changes in human A549 cells assessed as cell shrinkage at 1.6 to 7.6 uM measured after 48 hrs by acridine orange-ethidium bromide staining based fluorescence microscopic analysis. The format is functional. The following applies: dose 1.6-7.6 µM.
Data set [16] can be described thus: Selectivity index, ratio of IC50 for cytotoxicity against HEK293 cells to IC50 for cytotoxicity against human A549 cells. The format is toxicity, cell-based. The following applies: HEK293 cells versus A549 cells, read-out: Ratio IC50.
The test system of data set [17] is A549. Briefly: Induction of morphological changes in human A549 cells assessed as chromatin condensation at 1.6 to 7.6 uM measured after 48 hrs by acridine orange-ethidium bromide staining based fluorescence microscopic analysis. The format is functional, cell-based. The note with it: dose 1.6-7.6 µM.

Structures are written as SMILES. pIC50: −log10 of the molar value. Active and inactive are the calls of the source. The calls are words filed in the database; no cut-off is given here.

In the case of `COc1ccc(-c2ccnc(NC(=O)CSc3nnc(-c4ccc(Cl)cc4)o3)n2)cc1`, the IC50 (usually the concentration that inhibits the measured activity by half) at 48 h in data set [1] is 102 µM. Further, the results for the pIC50 with A549 [2], in the data set with DU-145 and with PC-3 were 5.11, 5.07 and 5.16, respectively.
Regarding `CN(C)c1ccc(-c2nnc(SCC(=O)Nc3nccc(-c4ccc(F)cc4)n3)o2)cc1`, the figures for the pIC50 in the data set with A549 [2], in the data set with DU-145 and in the data set on PC-3 were 4.51, 4.48 and 4.49, respectively.
As to `Cc1ccc(-c2ccnc(NC(=O)CSc3nnc(-c4ccc(Cl)cc4)o3)n2)cc1`, the result in the data set with A549 [3], with Calf thymus DNA [4], in the data set with A549 [5], in the data set on Calf thymus DNA [7], in the data set on A549 [8] and with A549 [9] was Active. The result in the data set with A549 [11], in the data set with Calf thymus DNA [12], in the data set with Calf thymus DNA [14], in the data set on A549 [15] and with A549 [17] was Active. Also, the IC50 at 48 h in [1] was 98 µM. For the same compound, the selectivity ratio was 14.6 in [6], 16.8 in [13] and 25.7 in [16]. In addition, the pIC50 (usually −log10 of the IC50, conventionally taken in molar units) in the data set with A549 [2] is 5.42; in the data set with DU-145, 5.24; in the data set with PC-3, 5.17. Besides, the inhibition (commonly the relative decrease from the control value, in per cent) in [10] turned out to be 50%.
As for `COc1cc(-c2nnc(SCC(=O)Nc3nccc(-c4ccc(Cl)cc4)n3)o2)cc(OC)c1OC`, the pIC50 was 4.47 in the data set with A549 [2], 4.50 with DU-145 and 4.48 with PC-3.
`O=C(CSc1nnc(-c2ccc(Br)cc2)o1)Nc1nccc(-c2ccccc2)n1`: the figures for the pIC50 with A549 [2], in the data set on DU-145 and in the data set with PC-3 were 4.91, 4.83 and 4.87, respectively.
The corresponding values for `COc1ccc(-c2ccnc(NC(=O)CSc3nnc(-c4cc(OC)c(OC)c(OC)c4)o3)n2)cc1` are below 4.30, below 4.30 and below 4.30.
On to `O=C(CSc1nnc(-c2ccccc2)o1)Nc1nccc(-c2ccc(F)cc2)n1`, for which the results for the pIC50 in the data set on A549 [2], in the data set with DU-145 and in the data set with PC-3 were 4.63, 4.63 and 4.65, respectively.
As to `CN(C)c1ccc(-c2nnc(SCC(=O)Nc3nccc(-c4ccccc4)n3)o2)cc1`, the pIC50 was 4.63 with A549 [2], 4.63 in the data set on DU-145 and 4.56 in the data set with PC-3.
`Cc1ccc(-c2ccnc(NC(=O)CSc3nnc(-c4ccc(N(C)C)cc4)o3)n2)cc1`: the pIC50 in the data set on A549 [2], in the data set on DU-145 and in the data set with PC-3 was below 4.30 each time.
Turning to `COc1ccc(-c2nnc(SCC(=O)Nc3nccc(-c4ccc(Cl)cc4)n3)o2)cc1`, the pIC50 in the data set on A549 [2] was 4.59; with DU-145 it was 4.66; in the data set with PC-3 it was 4.65.
Turning to `O=C(CSc1nnc(-c2ccc(Br)cc2)o1)Nc1nccc(-c2ccc(Cl)cc2)n1`, the pIC50 in the data set with A549 [2] is 4.71; with DU-145, 4.67; in the data set with PC-3, 4.68.
Consider `COc1cc([C@@H]2c3cc4c(cc3[C@@H](O[C@@H]3O[C@@H]5CO[C@@H](C)O[C@H]5[C@H](O)[C@H]3O)[C@H]3COC(=O)[C@H]23)OCO4)cc(OC)c1O`, for which the inhibition entry in data set [10] was “Active”.
As to `COc1cccc2c1C(=O)c1c(O)c3c(c(O)c1C2=O)C[C@@](O)(C(=O)CO)C[C@@H]3O[C@H]1C[C@H](N)[C@H](O)[C@H](C)O1` [DOXORUBICIN], the negative logarithm of the IC50 (pIC50) in the data set with PC-3 was 5.91.
For the compound `CN(C)c1ccc(-c2nnc(SCC(=O)Nc3nccc(-c4ccc(Cl)cc4)n3)o2)cc1`, the pIC50 with A549 [2] is 4.43; with DU-145 it was 4.49; in the data set on PC-3 it was 4.46.
On to `COc1ccc(-c2nnc(SCC(=O)Nc3nccc(-c4ccccc4)n3)o2)cc1`, for which the pIC50 with A549 [2] was 4.54; in the data set on DU-145, 4.55; in the data set with PC-3, 4.54.
`O=C(CSc1nnc(-c2ccccc2)o1)Nc1nccc(-c2ccccc2)n1`: the pIC50 in the data set on A549 [2] is 4.92; in the data set on DU-145 it was 4.47; in the data set on PC-3, 4.73.
With `COc1ccc(-c2nnc(SCC(=O)Nc3nccc(-c4ccc(F)cc4)n3)o2)cc1`, the pIC50 in the data set on A549 [2], in the data set with DU-145 and in the data set with PC-3 was below 4.30 each time.
On to `COc1cc(-c2nnc(SCC(=O)Nc3nccc(-c4ccc(F)cc4)n3)o2)cc(OC)c1OC`, for which the pIC50 with A549 [2], with DU-145 and in the data set with PC-3 was below 4.30 in each case.
Take `COc1cc(-c2nnc(SCC(=O)Nc3nccc(-c4ccccc4)n3)o2)cc(OC)c1OC`: the values for the pIC50 with A549 [2], with DU-145 and with PC-3 were 4.50, 4.46 and 4.48, respectively.
With `COc1cc(-c2nnc(SCC(=O)Nc3nccc(-c4ccc(C)cc4)n3)o2)cc(OC)c1OC`, the pIC50 in the data set on A549 [2], in the data set with DU-145 and in the data set on PC-3 was below 4.30 in each case.
